Patent publication US20200000091A1, “Microbe Proliferation Inhibitor, Method for Inhibiting Proliferation of Microbes, UV Resistance-Improving Agent, Method for Improving UV Resistance, Artificial Protein Formation Body and method for Manufacturing Same, Artificial Protein Solution, and Coloring Agent” (Keio University, priority 2017, published 2020)

System: Escherichia coli wild strain (W3110)
Test: Growth of Escherichia coli in M9 medium, absorbance (OD600) measured every hour
Assay type: cell-based
Conditions: 1 mM xanthurenic acid in M9 medium (Tris-HCl buffer pH 8), compared with Comparative Example 1 (no xanthurenic acid), FIG. 1
Description: An Escherichia coli wild strain (W3110) was cultured in M9 medium (7 mg/ml K2HPO4, 3 mg/ml KH2PO4, 0.5 mg/ml NaCl, 1 mg/ml NH4Cl, 1 mg/ml glucose, 1 mM MgSO4.7H2O, 14.7 μg/ml CaCl2)) containing 10 μg/ml thiamine. In preparing the medium, a Tris-HCl buffer solution (pH 8) was used instead of water in consideration of the solubility of xanthurenic acid. The obtained overnight cultures were diluted into 0.8% with 20 ml of a fresh medium containing 1 mM xanthurenic acid (Wako Pure Chemical Industries, Ltd.) to obtain a sample solution. Absorbance (OD600) was measured as to this sample solution every hour by using Nano Photometer (Implen GmbH).
The preparation and measurement of a sample solution were performed in the same way as in Example 1 except that the overnight cultures were diluted with a fresh medium containing no xanthurenic acid.

With `O=C(O)c1cc(O)c2cccc(O)c2n1` [Example 1, xanthurenic acid] the “absorbance (OD600); proliferation of Escherichia coli” value was “proliferation of Escherichia coli was inhibited”.
